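Interpolation was linear, between the two tested concentrations surrounding the appropriate level; five concentrations were tested over 48 hours in 96-well plates. At the TGI there is no net growth.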 Where a SMILES comes first, the peptide text is derived from it. The star is where a group is joined. OBn = c1ccc(CO*)cc1
Tests used:
Experiment in all cases: growth of human tumour cells (NCI), 48 h
DU-145 prostate = tested on: DU-145 prostate
RPMI-8226 leukemia = tested on: RPMI-8226 leukemia
786-0 renal = tested on: 786-0 renal
HT29 colon = tested on: HT29 colon
HCT-116 colon = tested on: HCT-116 colon
U251 CNS = tested on: U251 CNS
SK-MEL-28 melanoma = tested on: SK-MEL-28 melanoma
RXF 393 renal = tested on: RXF 393 renal
MCF7 breast = tested on: MCF7 breast
HCC-2998 colon = tested on: HCC-2998 colon
UACC-257 melanoma = tested on: UACC-257 melanoma

| Structure (SMILES) | TGI (DU-145 prostate) [µM] | TGI (RPMI-8226 leukemia) [µM] | TGI (786-0 renal) [µM] | TGI (HT29 colon) [µM] | TGI (HCT-116 colon) [µM] | TGI (U251 CNS) [µM] | TGI (SK-MEL-28 melanoma) [µM] | TGI (RXF 393 renal) [µM] | TGI (MCF7 breast) [µM] | TGI (HCC-2998 colon) [µM] | TGI (UACC-257 melanoma) [µM] |
| --- | --- | --- | --- | --- | --- | --- | --- | --- | --- | --- | --- |
| NC(CCC(=O)OCc1ccccc1)C(=O)NC(CCC(=O)OCc1ccccc1)C(=O)O (configuration not stated) (H-Glu(OBn)-Glu(OBn)-OH; configuration not given here) | > 100 | > 100 | > 100 | > 100 | > 100 | > 100 | > 100 | > 100 | > 100 | > 100 | – |
| C[C@@H]1OC2(O)[C@@H]3CCCN3C(=O)N(Cc3ccccc3)N2C1=O (some centres not stated) | > 100 | – | > 100 | > 100 | > 100 | – | > 100 | > 100 | > 100 | > 100 | > 100 |
| C/C(=N/NC(=S)N1CCCC1)c1cccc(/C(C)=N\NC(=S)N2CCCC2)n1 | 38.5 | 18.1 | 2.66 | 5.1 | 3.28 | 4.14 | 5.09 | 3.18 | – | 2.86 | – |
| CN1CCN(C(=S)N(C)C(=O)c2cccs2)CC1 | > 100 | > 100 | > 100 | > 100 | – | > 100 | – | > 100 | > 100 | > 100 | > 100 |
| COc1ccc(C(=O)N2CCN(c3ccc4[nH]c(=O)oc4c3)CC2)cc1 | > 100 | > 100 | > 100 | > 100 | > 100 | > 100 | > 100 | – | > 100 | > 100 | > 100 |
| CO[C@H](c1ccccc1)[C@H](O)[C@](O)(c1ccccc1)P(=O)(OC)OC | > 100 | > 100 | > 100 | > 100 | > 100 | > 100 | > 100 | > 100 | – | > 100 | > 100 |
| C(/C=N/NC1=NCCCN1)=N\NC1=NCCCN1 | – | – | > 100 | > 100 | > 100 | > 100 | > 100 | – | > 100 | > 100 | > 100 |
| CSC(=N)N1N=C2c3ccccc3CC[C@@H]2[C@@H]1c1ccccc1 | – | 35.5 | 25.6 | 23.6 | 17.7 | 31 | 29.8 | 27.7 | – | 29.4 | 35.3 |
| COC(=O)/C=C(\S/C(=C(/c1ccc(OC)cc1)n1cc(C(=O)OC)c(C(=O)OC)n1)c1ccc(OC)cc1)C(=O)OC | 40.3 | > 100 | 26.9 | 30.7 | 31.3 | > 100 | > 100 | 29.4 | > 100 | – | 25.3 |
| CC(C)N(c1cc2c(cc1F)c(=O)c(C(=O)O)cn2-c1ccc(N2CCN(C)CC2)cn1)C(C)C | > 100 | > 100 | > 100 | > 100 | > 100 | > 100 | > 100 | > 100 | > 100 | – | > 100 |
| O=C1c2ccccc2C(=O)c2c(O)c(O)cc(O)c21 | – | 70.1 | > 100 | – | 77.1 | > 100 | > 100 | 85.4 | – | 85.6 | > 100 |
| COc1ccccc1N1C(=O)/C(=C\c2cc(OC)c(OC)c(OC)c2)S(=O)(=O)C1c1ccccc1 (configuration not stated) | > 100 | 57.1 | > 100 | – | > 100 | > 100 | > 100 | 61.1 | > 100 | > 100 | > 100 |
| O=C(Nc1ccccc1)C(=O)C(C(=O)c1ccccc1)C(c1ccccc1)c1ccccc1 (configuration not stated) | > 10 | > 10 | > 10 | > 10 | – | – | > 10 | > 10 | > 10 | > 10 | > 10 |
| O=c1[nH]c(=O)n(C2CC(O)C(CO)O2)c2nc3ccc4ccccc4c3nc12 (configuration not stated) | > 100 | 76 | > 100 | – | > 100 | > 100 | > 100 | > 100 | > 100 | > 100 | > 100 |
| O=C(/C=C\c1ccccc1-c1ccccc1)c1ccccc1 | > 100 | > 100 | > 100 | > 100 | > 100 | > 100 | – | > 100 | – | > 100 | > 100 |
| COc1ccc(N2C(=O)/C(=C\c3cc(OC)c(OC)c(OC)c3)S(=O)(=O)C2c2ccccc2)cc1 (configuration not stated) | > 100 | > 100 | > 100 | – | > 100 | > 100 | > 100 | > 100 | > 100 | > 100 | > 100 |
| COc1ccc(C(CC(=O)c2ccccc2)C(=O)c2ccc3c(c2)OCO3)cc1 (configuration not stated) | > 100 | > 100 | > 100 | – | – | > 100 | > 100 | – | > 100 | > 100 | > 100 |
| O=C(/C=C/c1cccs1)c1ccc(C(=O)/C=C/c2cccs2)cc1 | > 100 | – | > 100 | > 100 | – | > 100 | > 100 | – | – | > 100 | > 100 |
| Cc1ccc(S(=O)(=O)n2cnc(CC(NC(=O)C3CCC(=O)N3C(=O)OCc3ccccc3)C(=O)N3CCCC3C(=O)NN)c2)cc1 (configuration not stated) | – | > 100 | > 100 | > 100 | > 100 | > 100 | > 100 | – | > 100 | > 100 | > 100 |
| Cc1n[nH]c(=O)n1/N=C/c1cccnc1 | > 100 | > 100 | > 100 | > 100 | > 100 | > 100 | > 100 | – | > 100 | > 100 | > 100 |
| Cc1cc2nc3c(C#N)c(-c4ccccc4)cc(Nc4ccc(F)cc4)n3c2cc1C | – | > 100 | 22.5 | > 100 | > 100 | 16.3 | > 100 | 61.3 | – | – | > 100 |
| O=C(O)CCSc1nnc(COc2ccc(Cl)cc2)n1-c1ccccc1 | > 100 | – | > 100 | > 100 | > 100 | > 100 | > 100 | > 100 | > 100 | > 100 | > 100 |

| Structure (SMILES) | TGI (DU-145 prostate) [µM] | TGI (RPMI-8226 leukemia) [µM] | TGI (786-0 renal) [µM] | TGI (HT29 colon) [µM] | TGI (HCT-116 colon) [µM] | TGI (U251 CNS) [µM] | TGI (SK-MEL-28 melanoma) [µM] | TGI (RXF 393 renal) [µM] | TGI (MCF7 breast) [µM] | TGI (HCC-2998 colon) [µM] | TGI (UACC-257 melanoma) [µM] |
| --- | --- | --- | --- | --- | --- | --- | --- | --- | --- | --- | --- |
| Cc1ccnc2nc3[nH]c4ccccc4c3cc12 | > 100 | > 100 | 83.7 | > 100 | > 100 | > 100 | – | > 100 | > 100 | > 100 | > 100 |
| C/C(=C/CNc1ncnc2c1ncn2CCC#N)CO | > 100 | > 100 | > 100 | > 100 | > 100 | – | > 100 | > 100 | > 100 | > 100 | > 100 |
| COc1ccc(-c2cc(-c3ccco3)c(C#N)c(=S)n2C2OC(CO)C(O)C(O)C2O)cc1 (configuration not stated) | – | > 100 | > 100 | > 100 | > 100 | > 100 | > 100 | > 100 | > 100 | > 100 | > 100 |
| N#CC1=C(N2CCOCC2)CCC1 | > 100 | > 100 | > 100 | > 100 | > 100 | > 100 | – | > 100 | > 100 | > 100 | > 100 |
| CC1=[N+]([O-])C(C)(C)N(O)C1(C)C | > 100 | > 100 | > 100 | > 100 | > 100 | > 100 | > 100 | > 100 | > 100 | > 100 | – |
| CCOC(=O)Oc1cc2c(ccn2C)c2c1c1ccccc1n2C(=O)OCC | > 100 | > 100 | > 100 | > 100 | > 100 | > 100 | > 100 | > 100 | > 100 | – | > 100 |
| CC1(C)N=C(N)N=C(N)N1c1cccc(OCc2cccc([N+](=O)[O-])c2)c1 | > 100 | > 100 | > 100 | > 100 | > 100 | 98.9 | > 100 | > 100 | > 100 | – | 48.2 |
| C/C(=C\COP(=O)(O)OP(=O)(O)O)CC/C=C(\C)CNc1ccc([N+](=O)[O-])cc1 | > 100 | > 100 | > 100 | > 100 | > 100 | > 100 | > 100 | > 100 | > 100 | – | > 100 |
| C=C1CC(COc2ccc3ccc(=O)oc3c2)(c2ccccc2)OC1=O (configuration not stated) | 7.21 | 0.434 | 2.84 | 2.27 | 2 | 22.2 | 6.12 | – | 2.78 | 2.48 | 4.05 |
| N#CC1=C(N)Nc2nc3ccccc3n2C1c1ccccc1 (configuration not stated) | > 100 | 31 | > 100 | > 100 | > 100 | > 100 | – | 56.3 | > 100 | – | > 100 |
| COc1ccc(-n2cnc3c(NC(C)(C)C(=O)O)ncnc32)cc1 | > 100 | > 100 | > 100 | > 100 | > 100 | > 100 | > 100 | – | > 100 | > 100 | > 100 |
| O=C1CCSc2c(cnc3ccccc23)N1 | > 100 | > 100 | > 100 | > 100 | > 100 | > 100 | > 100 | > 100 | > 100 | – | > 100 |
| CNC(=S)NNC1=NCCCCN1 | – | > 100 | > 100 | > 100 | > 100 | > 100 | > 100 | > 100 | > 100 | > 100 | > 100 |
| CCOC(=O)c1c(NC(=O)c2ccc(OC)cc2)sc2c1CCCC2 | > 100 | > 100 | > 100 | > 100 | > 100 | > 100 | > 100 | > 100 | > 100 | – | > 100 |
| CC(C)N1CCCOC(c2ccc([N+](=O)[O-])cc2)O1 (configuration not stated) | > 100 | – | > 100 | > 100 | > 100 | > 100 | > 100 | > 100 | > 100 | > 100 | > 100 |
| COc1cc(CCCC(O)COc2cccc3c2C2(O)CCCCCC32)cc(OC)c1 (configuration not stated) | – | 42 | 28.7 | 23.9 | 31.5 | 32.9 | 31.1 | 43.2 | – | 17.9 | 32.5 |
| COc1ccc2c(c1)/C(=C\c1cccc(/C=C3/C(=O)Nc4ccc(OC)cc43)n1)C(=O)N2 | 9.73 | – | 2.55 | – | 1.29 | 5.83 | – | 2.89 | > 25.6 | 3.58 | 18.4 |
| O=C1c2cccnc2C(=O)c2c1nc1ccccc1c2-c1cncc(-c2c3c(nc4ccccc24)C(=O)c2cccnc2C3=O)c1 | 0.565 | 0.808 | 0.228 | 1.28 | 0.352 | 1.22 | 1.57 | 5.48 | – | 1.47 | 1.08 |
| COc1ccc(CCN(C)C(=O)CC(C#N)(c2ccccc2)c2ccc(OC)c(OC)c2)cc1OC (configuration not stated) | > 100 | > 100 | > 100 | > 100 | > 100 | > 100 | > 100 | > 100 | > 100 | – | > 100 |
| COC(=O)c1cc(C#N)[nH]c1-c1cccs1 | > 100 | > 100 | > 100 | – | > 100 | > 100 | > 100 | 86.1 | – | > 100 | > 100 |
| COc1cc(/C=C2\N=C(c3ccccc3)N(/N=C/c3cc4cc(C)ccc4nc3Cl)C2=O)cc(OC)c1OC | 80.6 | 42.8 | > 100 | > 100 | > 100 | 51 | > 100 | – | > 100 | 45.4 | > 100 |

— PubChem BioAssay (NCI)
